Test results reported in publication PMC5218480 (PLoS ONE, 2017).

System: MV-4-11 cells
Assay: Gene expression microarray analysis (Affymetrix PrimeView) and GSEA
Assay type: cell-based, human
Set-up: RFU PODN (11730768_x_at) / Fold change /veh PODN (11730768_x_at) / RFU LINC00158 (11744669_a_at) / Fold change /veh LINC00158 (11744669_a_at) / RFU DUSP10 (11751237_a_at) / Fold change /veh DUSP10 (11751237_a_at) / RFU ID3 (11757404_x_at) / Fold change /veh ID3 (11757404_x_at) / RFU PLEKHG5 (11737974_s_at) / Fold change /veh PLEKHG5 (11737974_s_at) / RFU LRRC4B (11730491_at) / Fold change /veh LRRC4B (11730491_at) / RFU GIMAP4 (11747438_a_at) / Fold change /veh GIMAP4 (11747438_a_at) / RFU KRT8 (11758183_x_at) / Fold change /veh KRT8 (11758183_x_at) / RFU CNN1 (11734310_a_at) / Fold change /veh CNN1 (11734310_a_at) / RFU VPS37D (11726825_at) / Fold change /veh VPS37D (11726825_at) / RFU C10orf10 (11716522_x_at) / Fold change /veh C10orf10 (11716522_x_at) / RFU KIR2DL2 /// KIR2DL4 /// KIR2DL5A /// KIR2DL5B /// KIR2DS1 /// KIR2DS2 /// KIR2DS3 /// KIR2DS4 /// KIR3DL3 /// KIR3DL3 /// KIR3DS1 (11738374_at) / Fold change /veh KIR2DL2 /// KIR2DL4 /// KIR2DL5A /// KIR2DL5B /// KIR2DS1 /// KIR2DS2 /// KIR2DS3 /// KIR2DS4 /// KIR3DL3 /// KIR3DL3 /// KIR3DS1 (11738374_at) / RFU C1QL1 (11718748_at) / Fold change /veh C1QL1 (11718748_at) / RFU TMPRSS4 (11747572_a_at) / Fold change /veh TMPRSS4 (11747572_a_at) / RFU HAMP (11756126_x_at) / Fold change /veh HAMP (11756126_x_at) / RFU RNFT2 (11725882_a_at) / Fold change /veh RNFT2 (11725882_a_at) / RFU NR4A2 (11747474_a_at) / Fold change /veh NR4A2 (11747474_a_at) / RFU ABCC12 (11746883_a_at) / Fold change /veh ABCC12 (11746883_a_at) / RFU TMEM136 (11760407_x_at) / Fold change /veh TMEM136 (11760407_x_at) / RFU CLDN22 /// WWC2 (11732394_at) / Fold change /veh CLDN22 /// WWC2 (11732394_at) / RFU HLA-DPB1 (11760878_x_at) / Fold change /veh HLA-DPB1 (11760878_x_at) / RFU SPINT1 (11716480_a_at) / Fold change /veh SPINT1 (11716480_a_at) / RFU GAP43 (11754022_s_at) / Fold change /veh GAP43 (11754022_s_at) / RFU A4GNT (11735810_at) / Fold change /veh A4GNT (11735810_at) / RFU PRB3 (11715151_x_at) / Fold change /veh PRB3 (11715151_x_at) / RFU TUBB4B (11761932_at) / Fold change /veh TUBB4B (11761932_at) / RFU CAPN14 (11732068_a_at) / Fold change /veh CAPN14 (11732068_a_at) / RFU TMCC2 (11721928_a_at) / Fold change /veh TMCC2 (11721928_a_at) / RFU IRGQ (11745062_a_at) / Fold change /veh IRGQ (11745062_a_at) / RFU FAM174B (11720279_a_at) / Fold change /veh FAM174B (11720279_a_at) / RFU TMPRSS4 (11748680_a_at) / Fold change /veh TMPRSS4 (11748680_a_at) / RFU FAM212B (11763350_a_at) / Fold change /veh FAM212B (11763350_a_at) / RFU PLEKHG5 (11743358_a_at) / Fold change /veh PLEKHG5 (11743358_a_at) / RFU ZSCAN30 (11745921_a_at) / Fold change /veh ZSCAN30 (11745921_a_at) / RFU CMKLR1 (11741424_a_at) / Fold change /veh CMKLR1 (11741424_a_at) / RFU LOC101060620 /// MAPK8IP1 (11723275_at) / Fold change /veh LOC101060620 /// MAPK8IP1 (11723275_at) / RFU SPTSSB (11747773_x_at) / Fold change /veh SPTSSB (11747773_x_at) / RFU PRSS12 (11739890_at) / Fold change /veh PRSS12 (11739890_at) / RFU BIN1 (11741810_x_at) / Fold change /veh BIN1 (11741810_x_at) / RFU WNT11 (11732464_a_at) / Fold change /veh WNT11 (11732464_a_at) / RFU C10orf10 (11716521_a_at) / Fold change /veh C10orf10 (11716521_a_at) / RFU C5orf56 (11738089_at) / Fold change /veh C5orf56 (11738089_at) / RFU CYB561 (11721691_x_at) / Fold change /veh CYB561 (11721691_x_at) / RFU ANKRD19P (11752326_a_at) / Fold change /veh ANKRD19P (11752326_a_at) / RFU OR2T12 /// OR2T33 /// OR2T8 (11738714_s_at) / Fold change /veh OR2T12 /// OR2T33 /// OR2T8 (11738714_s_at) / RFU VCAN (11748164_a_at) / Fold change /veh VCAN (11748164_a_at) / RFU JSRP1 (11732532_at) / Fold change /veh JSRP1 (11732532_at) / RFU KRTAP10-11 (11738290_x_at) / Fold change /veh KRTAP10-11 (11738290_x_at) / RFU MYO3A (11730013_a_at) / Fold change /veh MYO3A (11730013_a_at) / RFU EBF3 (11725865_a_at) / Fold change /veh EBF3 (11725865_a_at) / RFU CAMK2N1 (11719241_x_at) / Fold change /veh CAMK2N1 (11719241_x_at) / RFU C5orf56 (11738088_a_at) / Fold change /veh C5orf56 (11738088_a_at) / RFU OLFML3 (11715873_a_at) / Fold change /veh OLFML3 (11715873_a_at) / RFU LOC100653217 /// NTM (11731650_a_at) / Fold change /veh LOC100653217 /// NTM (11731650_a_at) / RFU MAPK11 (11762145_a_at) / Fold change /veh MAPK11 (11762145_a_at) / RFU FIZ1 (11724087_x_at) / Fold change /veh FIZ1 (11724087_x_at) / RFU OASL (11726364_x_at) / Fold change /veh OASL (11726364_x_at) / RFU SOX15 (11748057_x_at) / Fold change /veh SOX15 (11748057_x_at) / RFU CD79A (11719716_a_at) / Fold change /veh CD79A (11719716_a_at) / RFU HIST1H1D (11736915_at) / Fold change /veh HIST1H1D (11736915_at) / RFU CASKIN2 (11723855_a_at) / Fold change /veh CASKIN2 (11723855_a_at) / RFU LOC730098 (11760151_x_at) / Fold change /veh LOC730098 (11760151_x_at) / RFU OR4N2 (11742367_at) / Fold change /veh OR4N2 (11742367_at) / RFU PRRT2 (11749266_a_at) / Fold change /veh PRRT2 (11749266_a_at) / RFU SNX32 (11753110_a_at) / Fold change /veh SNX32 (11753110_a_at) / RFU CDHR5 (11726645_a_at) / Fold change /veh CDHR5 (11726645_a_at) / RFU RCAN1 (11760418_a_at) / Fold change /veh RCAN1 (11760418_a_at) / RFU FAM167A (11723789_a_at) / Fold change /veh FAM167A (11723789_a_at) / RFU FAM26E (11764081_at) / Fold change /veh FAM26E (11764081_at) / RFU ISYNA1 (11749810_s_at) / Fold change /veh ISYNA1 (11749810_s_at) / RFU ACY1 (11761880_at) / Fold change /veh ACY1 (11761880_at) / RFU 11764098_at / Fold change /veh 11764098_at / RFU SAMD14 (11745864_x_at) / Fold change /veh SAMD14 (11745864_x_at) / RFU NPB (11741838_a_at) / Fold change /veh NPB (11741838_a_at) / RFU TMPRSS6 (11731388_a_at) / Fold change /veh TMPRSS6 (11731388_a_at) / RFU KRTAP10-2 (11738614_at) / Fold change /veh KRTAP10-2 (11738614_at) / RFU ARHGAP8 /// PRR5-ARHGAP8 (11727945_x_at) / Fold change /veh ARHGAP8 /// PRR5-ARHGAP8 (11727945_x_at) / RFU KRTAP5-7 /// NADSYN1 (11734609_at) / Fold change /veh KRTAP5-7 /// NADSYN1 (11734609_at) / RFU RASL12 (11751679_a_at) / Fold change /veh RASL12 (11751679_a_at) / RFU CDKN2B (11736163_a_at) / Fold change /veh CDKN2B (11736163_a_at) / RFU PRF1 (11729649_at) / Fold change /veh PRF1 (11729649_at) / RFU, ZNF638 /// ZNF638-IT1 / Fold change vs veh, ZNF638 /// ZNF638-IT1 / RFU, PANK3 / Fold change vs veh, PANK3 / RFU, SH3YL1 / Fold change vs veh, SH3YL1 / RFU, ZEB2 / Fold change vs veh, ZEB2 / RFU, NRIP1 / Fold change vs veh, NRIP1 / RFU, PTTG1IP / Fold change vs veh, PTTG1IP / RFU, CAPN2 / Fold change vs veh, CAPN2 / RFU, MED14 / Fold change vs veh, MED14 / RFU, SNORA58 / Fold change vs veh, SNORA58 / RFU, C1orf63 / Fold change vs veh, C1orf63 / RFU, LRRFIP1 / Fold change vs veh, LRRFIP1 / RFU, NDUFAF7 / Fold change vs veh, NDUFAF7 / RFU, SLC12A2 / Fold change vs veh, SLC12A2 / RFU, IBTK / Fold change vs veh, IBTK / RFU, ESF1 / Fold change vs veh, ESF1 / Fold change vs veh, TMEM50B / RFU, TAOK1 / Fold change vs veh, TAOK1 / RFU, ACBD3 / Fold change vs veh, ACBD3 / RFU, TMA16 / Fold change vs veh, TMA16 / RFU, RWDD3 / Fold change vs veh, RWDD3 / RFU, BCAT1 / Fold change vs veh, BCAT1 / RFU, EDEM3 / Fold change vs veh, EDEM3 / RFU, TMEM33 / Fold change vs veh, TMEM33 / RFU, WDR75 / Fold change vs veh, WDR75 / RFU, AHCTF1 / Fold change vs veh, AHCTF1 / RFU, TFRC / Fold change vs veh, TFRC / RFU, ZDHHC17 / Fold change vs veh, ZDHHC17 / RFU, NOM1 / Fold change vs veh, NOM1 / RFU, ARL8B / Fold change vs veh, ARL8B / RFU, ZBTB11 / Fold change vs veh, ZBTB11 / RFU, TAMM41 / Fold change vs veh, TAMM41 / RFU, KIAA1704 /// LOC100996395 / Fold change vs veh, KIAA1704 /// LOC100996395 / RFU, ING1 / Fold change vs veh, ING1 / RFU, TRMT61B / Fold change vs veh, TRMT61B / RFU, FUBP3 / Fold change vs veh, FUBP3 / RFU, TP53 / Fold change vs veh, TP53 / RFU, TNKS2 / Fold change vs veh, TNKS2 / RFU, ZFP14 / Fold change vs veh, ZFP14 / RFU, ACTR2 / Fold change vs veh, ACTR2 / RFU, PPP3R1 / Fold change vs veh, PPP3R1 / RFU, PIK3R1 / Fold change vs veh, PIK3R1 / RFU, HNRNPA1 / Fold change vs veh, HNRNPA1 / RFU, RNF170 / Fold change vs veh, RNF170 / RFU, ZNF28 / Fold change vs veh, ZNF28 / RFU, RNGTT / Fold change vs veh, RNGTT / RFU, OGT / Fold change vs veh, OGT / RFU, BRD1 / Fold change vs veh, BRD1 / RFU, MARS / Fold change vs veh, MARS / RFU, ZNF655 / Fold change vs veh, ZNF655 / RFU, FAHD1 / Fold change vs veh, FAHD1 / RFU, BDP1 / Fold change vs veh, BDP1 / RFU, LRRCC1 / Fold change vs veh, LRRCC1 / RFU, ARID1A / Fold change vs veh, ARID1A / RFU, ZNF146 / Fold change vs veh, ZNF146 / RFU, ZNF330 / Fold change vs veh, ZNF330 / RFU, GPN3 / Fold change vs veh, GPN3 / RFU, C9orf123 / Fold change vs veh, C9orf123 / RFU, N4BP2L2 / Fold change vs veh, N4BP2L2 / RFU, ARFIP1 / Fold change vs veh, ARFIP1 / RFU, FAM179B / Fold change vs veh, FAM179B / RFU, BCL10 / Fold change vs veh, BCL10 / RFU, UHRF1BP1L / Fold change vs veh, UHRF1BP1L / RFU, BET1 / Fold change vs veh, BET1 / RFU, CNOT2 / Fold change vs veh, CNOT2 / RFU, ZNF268 / Fold change vs veh, ZNF268 / Fold change vs veh, ZNF507 / RFU, DGCR2 / Fold change vs veh, DGCR2 / RFU, WDSUB1 / Fold change vs veh, WDSUB1 / Fold change vs veh, HSP90B1 /// MIR3652 / RFU, ADSS / Fold change vs veh, ADSS / RFU, GK / Fold change vs veh, GK / RFU, ZNF148 / Fold change vs veh, ZNF148 / RFU, TAF9 / Fold change vs veh, TAF9 / RFU, SLC1A5 / Fold change vs veh, SLC1A5 / RFU, SLMO2 / Fold change vs veh, SLMO2 / RFU, ABCC4 / Fold change vs veh, ABCC4 / RFU, LOC101060439 /// RAP1B / Fold change vs veh, LOC101060439 /// RAP1B / RFU, RFX7 / Fold change vs veh, RFX7 / RFU, GTPBP10 / Fold change vs veh, GTPBP10 / RFU, CNEP1R1 / Fold change vs veh, CNEP1R1 / RFU, BIVM-ERCC5 /// ERCC5 / Fold change vs veh, BIVM-ERCC5 /// ERCC5 / RFU, ILF3 / Fold change vs veh, ILF3 / RFU 11762660_at / Fold change /veh 11762660_at / RFU VCAN (11757783_s_at) / Fold change /veh VCAN (11757783_s_at) / RFU DDX43 (11728927_at) / Fold change /veh DDX43 (11728927_at) / RFU KRT8 (11758188_x_at) / Fold change /veh KRT8 (11758188_x_at) / RFU NKD1 (11759106_at) / Fold change /veh NKD1 (11759106_at) / RFU SRD5A1 (11742802_a_at) / Fold change /veh SRD5A1 (11742802_a_at) / RFU TPSAB1 /// TPSB2 (11721975_s_at) / Fold change /veh TPSAB1 /// TPSB2 (11721975_s_at) / RFU GSTM3 (11746129_a_at) / Fold change /veh GSTM3 (11746129_a_at) / RFU IL23R (11737362_x_at) / Fold change /veh IL23R (11737362_x_at) / RFU TMEM51 (11727254_a_at) / Fold change /veh TMEM51 (11727254_a_at) / RFU PIWIL2 (11732686_x_at) / Fold change /veh PIWIL2 (11732686_x_at) / RFU ORM1 (11744905_x_at) / Fold change /veh ORM1 (11744905_x_at) / RFU CCDC152 (11743942_at) / Fold change /veh CCDC152 (11743942_at) / RFU ECM1 (11717891_a_at) / Fold change /veh ECM1 (11717891_a_at) / RFU IL23R (11748794_a_at) / Fold change /veh IL23R (11748794_a_at) / RFU TNFAIP8L3 (11732012_x_at) / Fold change /veh TNFAIP8L3 (11732012_x_at) / RFU MBOAT4 (11741988_at) / Fold change /veh MBOAT4 (11741988_at) / RFU 11764193_at / Fold change /veh 11764193_at / RFU TMEM53 (11763286_at) / Fold change /veh TMEM53 (11763286_at) / RFU MAGEB2 (11727129_at) / Fold change /veh MAGEB2 (11727129_at) / RFU TMEM200A (11744735_a_at) / Fold change /veh TMEM200A (11744735_a_at) / RFU CCDC152 (11751479_a_at) / Fold change /veh CCDC152 (11751479_a_at) / RFU FAM211A (11726209_a_at) / Fold change /veh FAM211A (11726209_a_at) / RFU RGS16 (11746705_a_at) / Fold change /veh RGS16 (11746705_a_at) / RFU VCAN (11755009_s_at) / Fold change /veh VCAN (11755009_s_at) / RFU RHOB (11743442_s_at) / Fold change /veh RHOB (11743442_s_at) / RFU RGS16 (11720943_a_at) / Fold change /veh RGS16 (11720943_a_at) / RFU RGS16 (11720944_at) / Fold change /veh RGS16 (11720944_at) / RFU, VPS4B / Fold change vs veh, VPS4B / RFU, CREB1 / Fold change vs veh, CREB1 / RFU, DNAJC13 / Fold change vs veh, DNAJC13 / RFU, GNAQ / Fold change vs veh, GNAQ / RFU, CDK5R1 / Fold change vs veh, CDK5R1 / RFU, ZRANB3 / Fold change vs veh, ZRANB3 / RFU, CUL4A / Fold change vs veh, CUL4A / RFU, CCNY / Fold change vs veh, CCNY / RFU, UFL1 / Fold change vs veh, UFL1 / RFU, COG3 / Fold change vs veh, COG3 / RFU, DIAPH2 / Fold change vs veh, DIAPH2 / RFU, SKA2 / Fold change vs veh, SKA2 / RFU, AFF3 / Fold change vs veh, AFF3 / RFU, LMF1 / Fold change vs veh, LMF1 / RFU, IPO11 / Fold change vs veh, IPO11 / RFU, DFFB / Fold change vs veh, DFFB / RFU, FOXP1 / Fold change vs veh, FOXP1 / RFU, CARD8 / Fold change vs veh, CARD8 / RFU, STRN3 / Fold change vs veh, STRN3 / RFU, ADK / Fold change vs veh, ADK / RFU, RASSF2 / Fold change vs veh, RASSF2 / RFU, WIPF1 / Fold change vs veh, WIPF1 / RFU, LARP1B / Fold change vs veh, LARP1B / RFU, RASA1 / Fold change vs veh, RASA1 / RFU, RB1 / Fold change vs veh, RB1 / RFU, PPFIA1 / Fold change vs veh, PPFIA1 / RFU, MAT2A / Fold change vs veh, MAT2A / RFU, CCT5 / Fold change vs veh, CCT5 / RFU, WDR92 / Fold change vs veh, WDR92 / RFU, CUX1 / Fold change vs veh, CUX1 / RFU, TTC7A / Fold change vs veh, TTC7A / RFU, TMEM135 / Fold change vs veh, TMEM135 / RFU, DEPTOR / Fold change vs veh, DEPTOR / RFU, CPM / Fold change vs veh, CPM / RFU, DNAJB6 / Fold change vs veh, DNAJB6 / RFU, CACNA2D3 / Fold change vs veh, CACNA2D3 / RFU, DTX4 / Fold change vs veh, DTX4 / RFU, TFCP2 / Fold change vs veh, TFCP2 / RFU, GMCL1 /// GMCL1P1 / Fold change vs veh, GMCL1 /// GMCL1P1 / RFU, AEBP2 / Fold change vs veh, AEBP2 / RFU, SNHG1 /// SNORD22 /// SNORD25 /// SNORD26 /// SNORD27 /// SNORD28 /// SNORD29 /// SNORD31 / Fold change vs veh, SNHG1 /// SNORD22 /// SNORD25 /// SNORD26 /// SNORD27 /// SNORD28 /// SNORD29 /// SNORD31 / Fold change (Aza/veh), C12orf56 (ProbeSet 11735607_a_at) / Fold change (ACY-1035/veh), C12orf56 (ProbeSet 11735607_a_at) / Fold change (Aza/veh), FGFR1OP (ProbeSet 11751329_s_at) / Fold change (ACY-1035/veh), FGFR1OP (ProbeSet 11751329_s_at) / Fold change (Aza/veh), VPS36 (ProbeSet 11739960_a_at) / Fold change (ACY-1035/veh), VPS36 (ProbeSet 11739960_a_at) / RFU SYPL1 (11715823_x_at) / Fold change /veh SYPL1 (11715823_x_at) / RFU IGFBP7 (11715501_s_at) / Fold change /veh IGFBP7 (11715501_s_at) / RFU REEP3 (11722064_at) / Fold change /veh REEP3 (11722064_at) / RFU IGLL1 (11728026_x_at) / Fold change /veh IGLL1 (11728026_x_at): dose or concentration left out as unconfirmed
Details: ProbeSet 11719185_x_at; LIST B

Q: With `Nc1ccc(-c2cccs2)cc1NC(=O)c1ccc2c(c1)cc(C1CC1)n2CCN1CCOCC1` [ACY-1035] as the compound, how does the “RFU, N4BP2L2” value read?
A: 104.68 RFU
